From patent US10519177B2, “Heterocyclic compounds and uses thereof” (Plexxikon Inc., priority 2013, dated 2019)
pIC50: −log10 of the molar value. Like-named read-outs stand apart in the source and are kept apart here.

Columns and labels:
[1] = molecular target: BRD4-BD1 (44-164) (Homo sapiens (Human), UniProt O60885); assay: Alphascreen binding assay BRD4-BD1; settings: BRD4(1) H4; read-out: Biochemical activity (IC50 μM) BRD4(1) H4
Procedure, shortened: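 His-tagged E. coli-expressed BRD4 BD1 (44-164) or BD1-BD2 (1-477) incubated 1 h at room temperature with biotinylated tetra-acetylated histone H4 1-21 peptide and compound in HEPES pH 7.5, NaCl, BSA, Triton X-100, DTT buffer. Ni-chelate/streptavidin AlphaScreen beads (7.5 µg/ml) added, read after 30 min; pIC50 from four-parameter fit.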

[2] = molecular target: BRD4-BD12 (1-477) (Homo sapiens (Human), UniProt O60885); assay: Alphascreen binding assay BRD4-BD12; settings: BRD4(1 2) H4; read-out: Biochemical activity (IC50 μM) BRD4(1 2) H4
Procedure, shortened: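 First, compound was preincubated 1 h at room temperature with the His-tagged BRD4 protein (BD1 44-164 or tandem BD12 1-477) and acetylated H4 peptide. Next, donor and acceptor beads were added at 7.5 μg/ml final. After 30 min, AlphaScreen emission was recorded.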

[3] = tested on: MV-4-11 cells; assay: Oncology cell growth assay MV-4-11 (CellTiter Glo); type: cell-based
Procedure, shortened: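 MV-4-11 AML cells (MLL-AF4), 3000 per well, exposed to 8-point 1:3 compound titration from 10 μM top concentration (0.2% DMSO) for 72 h. Viability by CellTiter Glo luminescence, normalized to DMSO controls; pIC50 from four-parameter curve fit.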

[4] = tested on: bromodomain; assay: at least one of the bromodomain cell assays of Example 57; type: cell-based; settings: at least one of the bromodomain cell assays described in Example 57; read-out: IC50 in at least one of the bromodomain cell assays
[5] = Homo sapiens, MV4-11, 72 h; read-out: Cell activity (IC50 μM) MV-4-11 3d-Growth

Compound | IC50 [1] [µM] | IC50 [2] [µM] | IC50 [3, 5] [µM] | pIC50 [4] | IC50 ([3]; MV-4-11 3d-Growth; read-out: Cell activity (IC50 μM) MV-4-11 3d-Growth) [µM] | IC50 ([3]; Homo sapiens, MV4-11, 72 h, read-out: Cell activity (IC50 μM) MV-4-11 3d-Growth) [µM]
Cc1noc(C)c1-c1cnc2c(-c3cnn(C(F)F)c3)cn(CC3CC(F)(F)C3)c2c1 [P-0304] | < 1 | < 1 | < 1 | > 5.00 |  | 
Cc1noc(C)c1-c1cnc2c(I)cn(Cc3ncccn3)c2c1 [P-0319, 4-[3-iodo-1-(pyrimidin-2-ylmethyl)pyrrolo[3,2-b]pyridin-6-yl]-3,5-dimethyl-isoxazole] | < 1 | < 1 | < 1 | > 5.00 |  | 
[2H]C([2H])(C1CCC(F)(F)CC1)n1cc(I)c2ncc(-c3c(C)noc3C)cc21 [P-0262, 4-[1-[dideuterio-(4,4-difluorocyclohexyl)methyl]-3-iodo-pyrrolo[3,2-b]pyridin-6-yl]-3,5-dimethyl-isoxazole] | < 1 | < 1 | < 1 | > 5.00 |  | 
[2H]C([2H])(C1CC(F)(F)C1)n1cc(-c2cnn(CC(F)(F)F)c2)c2ncc(-c3c(C)noc3C)cc21 [P-0257, 4-[1-[dideuterio-(3,3-difluorocyclobutyl)methyl]-3-[1-(2,2,2-trifluoroethyl)pyrazol-4-yl]pyrrolo[3,2-b]pyridin-6-yl]-3,5-dimethyl-isoxazole] | < 1 | < 1 | < 1 | > 5.00 |  | 
Cc1nnn(C)c1-c1cnc2c(-c3cnn(CC(F)(F)F)c3)cn(CC3CCC(F)(F)CC3)c2c1 [P-0311, 1-[(4,4-difluorocyclohexyl)methyl]-6-(3,5-dimethyltriazol-4-yl)-3-[1-(2,2,2-trifluoroethyl)pyrazol-4-yl]pyrrolo[3,2-b]pyridine] | < 1 | 1 to 10 | < 1 | > 5.00 |  | 
Cc1noc(C)c1-c1cnc2c(-c3cnn(CC(F)(F)F)c3)cn(C(CC#N)c3ccccc3)c2c1 (stereo not shown) [P-0332, 3-[6-(3,5-dimethylisoxazol-4-yl)-3-[1-(2,2,2-trifluoroethyl)pyrazol-4-yl]pyrrolo[3,2-b]pyridin-1-yl]-3-phenyl-propanenitrile] | < 1 | < 1 | < 1 | > 5.00 |  | 
Cc1nnn(C)c1-c1cnc2c(-c3cnn(CC(F)(F)F)c3)cn(CC3(F)CCC(F)(F)CC3)c2c1 [P-0372, 6-(3,5-dimethyltriazol-4-yl)-1-[(1,4,4-trifluorocyclohexyl)methyl]-3-[1-(2,2,2-trifluoroethyl)pyrazol-4-yl]pyrrolo[3,2-b]pyridine] | < 1 | < 1 | < 1 | > 5.00 |  | 
Cc1noc(C)c1-c1cnc2c(I)cn(Cc3ccccc3)c2c1 [P-0318, 4-(1-benzyl-3-iodo-pyrrolo[3,2-b]pyridin-6-yl)-3,5-dimethyl-isoxazole] | < 1 | < 1 | < 1 | > 5.00 |  | 
Cc1noc(C)c1-c1cnc2c(-c3ccc(=O)n(C)c3)cn(C(C)c3ccccc3)c2c1 (stereo not shown) [P-0274, 5-[6-(3,5-dimethylisoxazol-4-yl)-1-(1-phenylethyl)pyrrolo[3,2-b]pyridin-3-yl]-1-methyl-pyridin-2-one] | < 1 | < 1 | < 1 | > 5.00 |  | 
Cc1noc(C)c1-c1cnc2c(-c3cnn(C)c3)cn(Cc3ccccc3)c2c1 [P-0327, 4-[1-benzyl-3-(1-methylpyrazol-4-yl)pyrrolo[3,2-b]pyridin-6-yl]-3,5-dimethyl-isoxazole] | < 1 | < 1 | < 1 | > 5.00 |  | 
Cc1noc(C)c1-c1cnc2c(-c3cnn(CC(F)(F)F)c3)cn(C(CC#N)C3CC3)c2c1 (stereo not shown) [P-0315, 3-cyclopropyl-3-[6-(3,5-dimethylisoxazol-4-yl)-3-[1-(2,2,2-trifluoroethyl)pyrazol-4-yl]pyrrolo[3,2-b]pyridin-1-yl]propanenitrile] | < 1 | < 1 | < 1 | > 5.00 |  | 
Cc1noc(C)c1-c1cnc2c(-c3cnn(C)c3)cn(C(CC#N)c3ccccc3)c2c1 (stereo not shown) [P-0331, 3-[6-(3,5-dimethylisoxazol-4-yl)-3-(1-methylpyrazol-4-yl)pyrrolo[3,2-b]pyridin-1-yl]-3-phenyl-propanenitrile] | < 1 | < 1 | < 1 | > 5.00 |  | 
Cc1n[nH]c(C)c1-c1cnc2ccn(CC3CCC(F)(F)CC3)c2c1 [P-0285, l-[(4,4-difluorocyclohexyl)methyl]-6-(3,5-dimethyl-1H-pyrazol-4-yl)pyrrolo[3,2-b]pyridine] | 1 to 10 | 10 to 200 | 1 to 10 | > 5.00 |  | 
Cc1noc(C)c1-c1cnc2c(-c3cnn(C(F)F)c3)cn(C(CC#N)C3CCOCC3)c2c1 (stereo not shown) [P-0314, 3-[3-[1-(difluoromethyl)pyrazol-4-yl]-6-(3,5-dimethylisoxazol-4-yl)pyrrolo[3,2-b]pyridin-1-yl]-3-tetrahydropyran-4-yl-propanenitrile] | < 1 | < 1 | < 1 | > 5.00 |  | 
Cc1noc(C)c1-c1cnc2c(c1)c(CC1CCN(S(=O)(=O)C3CCCC3)CC1)cn2C [P-0119, 4-[3-[(1-cyclopentylsulfonyl-4-piperidyl)methyl]-1-methyl-pyrrolo[2,3-b]pyridin-5-yl]-3,5-dimethyl-isoxazole] | 1 to 10 |  | 1 to 10 | > 5.00 |  | 
Cc1noc(C)c1-c1cnc2c(-c3cnc(N)nc3)cn(C(C)c3ccccc3)c2c1 (stereo not shown) [P-0277, 5-[6-(3,5-dimethylisoxazol-4-yl)-1-(1-phenylethyl)pyrrolo[3,2-b]pyridin-3-yl]pyrimidin-2-amine] | < 1 | < 1 | < 1 | > 5.00 |  | 
Cc1noc(C)c1-c1cnc2c(-c3cnn(CC(F)(F)F)c3)c[nH]c2c1 [P-0265, 3,5-dimethyl-4-[3-[1-(2,2,2-trifluoroethyl)pyrazol-4-yl]-1H-pyrrolo[3,2-b]pyridin-6-yl]isoxazole] | < 1 | < 1 | < 1 | > 5.00 |  | 
Cc1noc(C)c1-c1cnc2c(C#CCO)cn(C(C)c3ccccc3)c2c1 (stereo not shown) [P-0302, 3-[6-(3,5-dimethylisoxazol-4-yl)-1-(1-phenylethyl)pyrrolo[3,2-b]pyridin-3-yl]prop-2-yn-1-ol] | < 1 | < 1 | < 1 | > 5.00 |  | 
Cc1noc(C)c1-c1cnc2c(-c3cnn(C)c3)cn(C(C)c3ccccn3)c2c1 (stereo not shown) [P-0217, 3,5-dimethyl-4-[3-(1-methylpyrazol-4-yl)-1-[1-(2-pyridyl)ethyl]pyrrolo[3,2-b]pyridin-6-yl]isoxazole] | < 1 |  | < 1 | > 5.00 |  | 
[6-(3,5-dimethylisoxazol-4-yl)-1H-pyrrolo[3,2-b]pyridin-3-yl]-tetrahydrothiopyran-4-yl-methanone [P-0091] | < 1 |  |  | > 5.00 | 1 to 10 | 
Cc1n[nH]cc1-c1cnc2ccn(CC3CCC(F)(F)CC3)c2c1 [P-0292, l-[(4,4-difluorocyclohexyl)methyl]-6-(3-methyl-1H-pyrazol-4-yl)pyrrolo[3,2-b]pyridine] | 10 to 200 |  | 1 to 10 | > 5.00 |  | 
Cc1noc(C)c1-c1cnc2c(c1)c(CC1CCN(C(=O)Nc3ccccc3)CC1)cn2C [P-0114, 4-[[5-(3,5-dimethylisoxazol-4-yl)-1-methyl-pyrrolo[2,3-b]pyridin-3-yl]methyl]-N-phenyl-piperidine-1-carboxamide] | < 1 |  | < 1 | > 5.00 |  | 
Cc1noc(C)c1-c1cnc2c(-c3cnn(CC(F)(F)F)c3)cn(C(C)c3ccccc3)c2c1 (stereo not shown) [P-0202, 3,5-dimethyl-4-[1-(1-phenyl-ethyl)-3-[1-(2,2,2-trifluoro-ethyl)pyrazol-4-yl]pyrrolo[3,2-b]pyridin-6-yl]isoxazole] | < 1 |  | < 1 | > 5.00 |  | 
1-(benzenesulfonyl)-5-(3,5-dimethylisoxazol-4-yl)pyrrolo[2,3-b]pyridine-3-carboxylic acid [P-0169] | < 1 |  |  | > 5.00 |  | 
CCS(=O)(=O)N1CCC(Cc2cn(C)c3ncc(-c4c(C)noc4C)cc23)CC1 [P-0116, 4-[3-[(1-ethylsulfonyl-4-piperidyl)methyl]-1-methyl-pyrrolo[2,3-b]pyridin-5-yl]-3,5-dimethyl-isoxazole] | < 1 |  | 1 to 10 | > 5.00 |  | 
Cc1noc(C)c1-c1cnc2c(c1)c(C(O)C1CCC(F)(F)CC1)cn2C (stereo not shown) [P-0101, (4,4-difluorocyclohexyl)-[5-(3,5-dimethylisoxazol-4-yl)-1-methyl-pyrrolo[2,3-b]pyridin-3-yl]methanol] | < 1 |  |  |  |  | < 1
CCc1[nH]c2ncc(-c3c(C)noc3C)cc2c1CC1CCC(F)(F)CC1 [P-0051, 4-[3-[(4,4-difluoro-cyclohexyl)methyl]-2-ethyl-1H-pyrrolo[2,3-b]pyridin-5-yl]-3,5-dimethyl-isoxazole] | < 1 |  |  |  |  | 
